From US10899738B2 (THE REGENTS OF THE UNIVERSITY OF MICHIGAN, priority 2016, dated 2021) come the findings set out here.

Each structure is given as a SMILES string.

As a reminder, the IC50 is the concentration at which inhibition is half-maximal.

In the first assay the target is menin protein (Homo sapiens (Human), UniProt O00255). The experiment in a line: biochemical. Format: binding. To be noted: FP competitive binding; menin protein 4 nM, FAM-MM2 probe 2 nM. The method, boiled down: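 Test compounds displaced FAM-MM2 (2 nM) from 4 nM menin after 30 min equilibration at room temperature in PBS buffer containing bovine γ-globulin, 4% DMSO and Triton X-100. Binding was followed by fluorescence polarization. Competition curves were fitted by nonlinear regression to give IC50 and Ki.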
Chain of menin protein (O00255 whole entry): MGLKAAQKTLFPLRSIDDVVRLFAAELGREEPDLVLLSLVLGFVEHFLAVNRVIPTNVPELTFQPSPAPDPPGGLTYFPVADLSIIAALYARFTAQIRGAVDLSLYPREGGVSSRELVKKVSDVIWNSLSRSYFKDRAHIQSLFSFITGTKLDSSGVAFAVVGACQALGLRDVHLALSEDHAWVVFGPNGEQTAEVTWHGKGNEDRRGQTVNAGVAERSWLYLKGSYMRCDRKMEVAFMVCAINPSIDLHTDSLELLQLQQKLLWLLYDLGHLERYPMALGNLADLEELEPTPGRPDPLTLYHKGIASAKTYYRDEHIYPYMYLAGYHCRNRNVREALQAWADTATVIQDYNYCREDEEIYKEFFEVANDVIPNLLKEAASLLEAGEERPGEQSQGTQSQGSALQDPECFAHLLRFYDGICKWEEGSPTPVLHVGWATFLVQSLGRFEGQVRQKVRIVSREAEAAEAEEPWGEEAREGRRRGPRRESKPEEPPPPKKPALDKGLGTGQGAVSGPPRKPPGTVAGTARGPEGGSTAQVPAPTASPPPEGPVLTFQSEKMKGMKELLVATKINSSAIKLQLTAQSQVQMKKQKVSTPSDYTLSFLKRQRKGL
`C[C@H](NC(=O)O[C@@H]1CCC[C@H]1[C@@](C#N)(c1ccccc1)C1CCN(CC2CN(c3ccc(S(=O)(=O)c4ccncc4)cc3)C2)CC1)c1ccccc1` [compound 218, (1R,2S)-2-((R)-cyano(phenyl)(1-((1-(4-(pyridin-4-ylsulfonyl)phenyl)azetidin-3-yl)methyl)piperidin-4-yl)methyl)cyclopentyl ((S)-1-phenylethyl)carbamate]: the “Menin Binding Affinity IC50 (μM)” value is “No inhibition”.
Still for that read-out and setting: to `CC(=O)O[C@@H]1CCC[C@H]1C(C#N)(c1ccccc1)C1CCN(CC#Cc2ccc(C#N)cc2)CC1` (mixture of isomers) [compound 387, rac-(1R,2S)-2-(cyano(1-(3-(4-cyanophenyl)prop-2-yn-1-yl)piperidin-4-yl)(phenyl)methyl)cyclopentyl acetate] belongs “No inhibition”.
Regarding `COC1CCC(C2(C3CCN(CCCOc4ccc(C#N)cc4)CC3)C(=O)NCc3ccccc32)C1` (stereo not drawn) [compound 26, 4-(3-(4-(4-(3-methoxycyclopentyl)-3-oxo-1,2,3,4-tetrahydroisoquinolin-4-yl)piperidin-1-yl)propoxy)benzonitrile], the “Menin Binding Affinity IC50 (μM)” value was “No inhibition”.

Staying with this assay, now noted: FP competitive binding; menin protein 4 nM, FAM-MM2 probe 2 nM; read-out: Menin Binding Affinity IC50.
As for `CNC(=O)O[C@@H]1CCC[C@H]1C(C#N)(c1ccccc1)C1CCN(CC2CN(c3ccc(S(=O)(=O)c4nn(C)cc4Br)cc3)C2)CC1` (mixture of isomers) [compound 229, rac-(1R,2S)-2-((1-((1-(4-((4-bromo-1-methyl-1H-pyrazol-3-yl)sulfonyl)phenyl)azetidin-3-yl)methyl)piperidin-4-yl)(cyano)(phenyl)methyl) cyclopentyl methylcarbamate], the IC50 was determined as 0.16 µM.
For `CC(C)CC1(C2CCN(CCCOc3ccc(C#N)cc3)CC2)NCCc2ccccc21` (stereo not drawn) [compound 242, 4-(3-(4-(1-isobutyl-1,2,3,4-tetrahydroisoquinolin-1-yl)piperidin-1-yl)propoxy)benzontrile], the 50% inhibitory concentration (IC50) was 2.1 µM.
As to `CC(=O)O[C@H]1CCC[C@@H]1C(C#N)(c1ccccc1)C1CCN(CC2CN(c3ccc(C(=O)O)cc3)C2)CC1` (mixture of isomers) [compound 388, rac-4-(3-((4-(((1R,2S)-2-acetoxycyclopentyl)(cyano) (phenyl)methyl)piperidin-1-yl)methyl)azetidin-1-yl)benzoic acid], the IC50 is 15.1 µM.
On the same count and under the same terms, to `CCNC(=O)O[C@H]1CCC[C@@H]1C(C#N)(c1ccccc1)C1CCN(CC2CN(c3ccc(S(=O)(=O)c4ccncc4)cc3)C2)CC1` (mixture of isomers) [compound 213, rac-(1S,2R)-2-(cyano(phenyl)(1-((1-(4-(pyridin-4-ylsulfonyl)phenyl)azetidin-3-yl)methyl)piperidin-4-yl)methyl)cyclopentyl ethylcarbamate] belongs 0.17 µM.
Consider `N#Cc1ccc(OCCCN2CCC(C3(C4CCCS4(=O)=O)NCCc4ccccc43)CC2)cc1` (stereo not drawn) [compound 304, 4-(3-(4-(1-(1,1-dioxidotetrahydrothiophen-2-yl)-1,2,3,4-tetrahydroisoquinolin-1-yl)piperidin-1-yl)propoxy)benzonitrile], for which the IC50 was found to be 10.7 µM.
On the same count and under the same terms, the value for `CN1CCC(C2(C3CCCCN3)CN(C)Cc3ccccc32)CC1` (stereo not drawn) [compound 166, 2-methyl-4-(1-methylpiperidin-4-yl)-4-(piperidin-2-yl)-1,2,3,4-tetrahydroisoquinoline] was 1410 µM; that for `CN1Cc2cccc(F)c2C(C2CCCC2)(C2CCN(CC3CN(c4ccc(C#N)cc4)C3)CC2)C1` (stereo not drawn) [compound 33, 4-(3-((4-(4-cyclopentyl-5-fluoro-2-methyl-1,2,3,4-tetrahydroisoquinolin-4-yl)piperidin-1-yl)methyl)azetidin-1-yl)benzonitrile] was 0.019 µM; that for `CCC(C)CC1(C2CCN(CCCOc3ccc(C#N)cc3)CC2)NCCc2ccccc21` (stereo not drawn) [compound 172, 4-(3-(4-(1-(2-methylbutyl)-1,2,3,4-tetrahydroisoquinolin-1-yl)piperidin-1-yl)propoxy)benzonitrile] was 11.2 µM.
Consider `COC(=O)N[C@@H]1CCC[C@H]1C(C#N)(c1ccccc1)C1CCN(CC2CN(c3ccc(S(=O)(=O)c4ccncc4)cc3)C2)CC1` (mixture of isomers) [Cpd. No. 346, methyl (rac-(1R,2S)-2-(cyano(phenyl)(1-((1-(4-(pyridin-4-ylsulfonyl)phenyl)azetidin-3-yl)methyl)piperidin-4-yl)methyl)cyclopentyl)carbamate], for which the IC50 stood at 0.569 µM.
Still for that read-out and setting: to `CN(C)C(=O)N[C@@H]1CCC[C@H]1C(C#N)(c1ccccc1)C1CCN(CC2CN(c3ccc(S(=O)(=O)c4ccncc4)cc3)C2)CC1` (mixture of isomers) [compound 276, rac-3-((1R,2S)-2-(cyano(phenyl)(1-((1-(4-(pyridin-4-ylsulfonyl)phenyl)azetidin-3-yl)methyl)piperidin-4-yl)methyl)cyclopentyl)-1,1-dimethylurea] belongs 1.2 µM.
Regarding `CC(C)(C)S(=O)(=O)c1ccc(N2CC(CN3CCC(C4(C5CCCC5)NCCc5ccccc54)CC3)C2)cc1` (stereo not drawn) [compound 87, 1-(1-((1-(4-(tert-butylsulfonyl)phenyl)azetidin-3-yl)methyl)piperidin-4-yl)-1-cyclopentyl-1,2,3,4-tetrahydroisoquinoline], the IC50 is 0.122 µM.
Regarding `N#Cc1ccc(OCCCN2CCC(C3(C4CCCC4)NCCc4sccc43)CC2)cc1` (stereo not drawn) [compound 32, 4-(3-(4-(4-cyclopentyl-4,5,6,7-tetrahydrothieno[3,2-c]pyridin-4-yl)piperidin-1-yl)propoxy)benzonitrile], the IC50 was 0.059 µM.
The same measure, in the same setting: to `N#Cc1ccc(OCCCN2CCC(C(CN)(c3ccccc3)C3CCCC3)CC2)cc1` (stereo not drawn) [compound 39, 4-(3-(4-(2-amino-1-cyclopentyl-1-phenylethyl)piperidin-1-yl)propoxy)benzonitrile] belongs 0.124 µM.
As to `N#CC(c1ccccc1)(C1CCCC1)C1CCN(CCCOc2ccc(S(=O)(=O)c3ccccc3)cc2)CC1` (stereo not drawn) [compound 126, 2-cyclopentyl-2-phenyl-2-(1-(3-(4-(phenylsulfonyl)phenoxy)propyl)piperidin-4-yl)acetonitrile], the half-maximal inhibitory concentration (IC50) stood at 58.4 µM.
With `CN(C)C(=O)O[C@H]1CCC[C@@H]1C(C#N)(c1ccccc1)C1CCN(CC2CN(c3ccc(S(=O)(=O)c4ccncc4)cc3)C2)CC1` (mixture of isomers) [compound 220, rac-(1S,2R)-2-(cyano(phenyl)(1-((1-(4-(pyridin-4-ylsulfonyl)phenyl)azetidin-3-yl)methyl)piperidin-4-yl)methyl)cyclopentyl dimethylcarbamate], the IC50 stood at 0.261 µM.
Regarding `CC(=O)N1CCC[C@@H]1C(C#N)(c1ccccc1)C1CCN(CCCOc2ccc(C#N)cc2)CC1` (stereo partly drawn) [compound 331, 4-(3-(4-(((R)-1-acetylpyrrolidin-2-yl)(cyano)(phenyl)methyl)piperidin-1-yl)propoxy)benzonitrile], the IC50 was found to be 23.3 µM.
Same read-out and setting: to `CNC(=O)O[C@H]1CCC[C@@H]1C(Cn1ccnc1)(c1ccccc1)C1CCN(C(=O)CCCc2ccc(C#N)cc2)CC1` (mixture of isomers) [compound 380, rac-(1S,2R)-2-(1-(1-(4-(4-cyanophenyl)butanoyl)piperidin-4-yl)-2-(1H-imidazol-1-yl)-1-phenylethyl)cyclopentyl methylcarbamate] belongs 0.798 µM; to `CNC(=O)O[C@H]1CCC[C@@H]1C(Cn1ccnc1)(c1ccccc1)C1CCN(CC2CN(c3ccc(S(=O)(=O)C4COC4)cc3)C2)CC1` (mixture of isomers) [compound 412, rac-(1S,2R)-2-(2-(1H-imidazol-1-yl)-1-(1-((1-(4-(oxetan-3-ylsulfonyl)phenyl)azetidin-3-yl)methyl)piperidin-4-yl)-1-phenylethyl)cyclopentyl methylcarbamate], 0.004 µM.
Regarding `COC[C@H]1CCC[C@@H]1C(C#N)(c1ccccc1)C1CCN(CC2CN(c3ccc(S(=O)(=O)C4CC4)cc3)C2)CC1` (mixture of isomers) [compound 265, rac-2-(1-((1-(4-(cyclopropylsulfonyl)phenyl)azetidin-3-yl)methyl)piperidin-4-yl)-2-((1S,2S)-2-(methoxymethyl)cyclopentyl)-2-phenylacetonitrile], the IC50 amounted to 4.9 µM.
For `CS(=O)(=O)N[C@H]1CCC[C@@H]1C(C#N)(c1ccccc1)C1CCN(CC2CN(c3ccc(S(=O)(=O)c4ccncc4)cc3)C2)CC1` (mixture of isomers) [compound 267, rac-N-((1S,2R)-2-(cyano(phenyl)(1-((1-(4-(pyridin-4-ylsulfony)phenyl)azetidin-3-yl)methyl)piperidin-4-yl)methyl)cyclopentyl) methanesulfonamide], the IC50 was 0.437 µM.
For the compound `CN1Cc2ccccc2C(C2CCCC2)(C2CCN(CC3CN(c4ccc(S(C)(=O)=O)cc4)C3)CC2)C1` (stereo not drawn) [compound 64, 4-cyclopentyl-2-methyl-4-(1-((1-(4-(methylsulfonyl)phenyl)azetidin-3-yl)methyl)piperidin-4-yl)-1,2,3,4-tetrahydroisoquinoline], the IC50 is 0.061 µM.
Turning to `CSC[C@H]1CCC[C@@H]1C(C#N)(c1ccccc1)C1CCN(CC2CN(c3ccc(S(=O)(=O)c4ccncc4)cc3)C2)CC1` (mixture of isomers) [compound 259, rac-2-((1S,2S)-2-((methylthio)methyl)cyclopentyl)-2-phenyl-2-(1-((1-(4-(pyridin-4-ylsulfonyl)phenyl)azetidin-3-yl)methyl)piperidin-4-yl)acetonitrile], the IC50 amounted to 10.3 µM.
On the same count and under the same terms, to `CNC(=O)C[C@H]1CCC[C@@H]1C(C#N)(c1ccccc1)C1CCN(CC2CN(c3ccc(S(=O)(=O)c4ccncc4)cc3)C2)CC1` (mixture of isomers) [compound 340, rac-2-((1R,2S)-2-(cyano(phenyl)(1-((1-(4-(pyridin-4-ylsulfonyl)phenyl)azetidin-3-yl)methyl)piperidin-4-yl)methyl)cyclopentyl)-N-methylacetamide] belongs 2.9 µM; to `CCC(CC)C1(C2CCN(CCCOc3ccc(C#N)cc3)CC2)NCCc2ccccc21` (stereo not drawn) [compound 249, 4-(3-(4-(1-(pentan-3-yl)-1,2,3,4-tetrahydroisoquinolin-1-yl)piperidin-1-yl)propoxy)benzonitrile], 1.9 µM.
